What was measured:
mouse IOP = test: Mouse IOP after topical application, non-invasive pneumotonometry; assay type: in vivo, Black Swiss mice
Procedure, shortened: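 Black Swiss outbred mice (7-9 weeks, mixed sex) under intraperitoneal ketamine plus topical proparacaine 0.5%. Drugs applied topically as […] droplets three times, containing <2% DMSO and 0.0005% benzalkonium chloride; IOP measured non-invasively by pneumotonometry at 10-min intervals from a stereotactically fixed probe position.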

[1] = molecular target: T1, recombinant human A2B receptors (Homo sapiens, UniProt P29275); test: Radioligand binding to recombinant human A2B receptors; details: 10 μM
T1 sequence (P29275 1-332): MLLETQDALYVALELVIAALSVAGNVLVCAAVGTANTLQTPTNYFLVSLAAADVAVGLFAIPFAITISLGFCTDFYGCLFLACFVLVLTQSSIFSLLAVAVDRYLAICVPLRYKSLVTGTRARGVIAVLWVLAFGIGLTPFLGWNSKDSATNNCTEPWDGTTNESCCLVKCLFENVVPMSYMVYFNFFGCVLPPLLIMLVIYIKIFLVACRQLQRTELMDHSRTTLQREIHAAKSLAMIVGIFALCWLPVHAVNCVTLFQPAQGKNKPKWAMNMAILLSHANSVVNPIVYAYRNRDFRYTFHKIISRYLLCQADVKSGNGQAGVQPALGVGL

cultured human NPE cells = details: 10 μM adenosine; cited from earlier work
[2] = tested on: IOP of A3 subtype adenosine receptor (A3AR)-null mice; details: published reports; cited from earlier work
human A1 receptors = molecular target: T2, human A1 receptors (Homo sapiens, UniProt P30542); details: literature; read-out: Ki for the binding to human A1 receptors; cited from earlier work
T2 sequence (P30542 1-326): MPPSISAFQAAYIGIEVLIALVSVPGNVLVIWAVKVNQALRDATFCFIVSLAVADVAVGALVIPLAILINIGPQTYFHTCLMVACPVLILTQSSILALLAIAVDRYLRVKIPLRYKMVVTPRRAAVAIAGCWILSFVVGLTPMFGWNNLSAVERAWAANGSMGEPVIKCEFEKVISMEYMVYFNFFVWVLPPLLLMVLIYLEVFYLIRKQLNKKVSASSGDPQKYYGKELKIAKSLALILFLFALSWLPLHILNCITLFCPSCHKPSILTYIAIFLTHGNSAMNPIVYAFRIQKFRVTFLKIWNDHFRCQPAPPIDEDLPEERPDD

human A2A receptors = human A2A receptors (Homo sapiens, UniProt P29274); details: literature; read-out: Ki for the binding to human A2A receptors; cited from earlier work
human A2A receptors, sequence (P29274 whole entry): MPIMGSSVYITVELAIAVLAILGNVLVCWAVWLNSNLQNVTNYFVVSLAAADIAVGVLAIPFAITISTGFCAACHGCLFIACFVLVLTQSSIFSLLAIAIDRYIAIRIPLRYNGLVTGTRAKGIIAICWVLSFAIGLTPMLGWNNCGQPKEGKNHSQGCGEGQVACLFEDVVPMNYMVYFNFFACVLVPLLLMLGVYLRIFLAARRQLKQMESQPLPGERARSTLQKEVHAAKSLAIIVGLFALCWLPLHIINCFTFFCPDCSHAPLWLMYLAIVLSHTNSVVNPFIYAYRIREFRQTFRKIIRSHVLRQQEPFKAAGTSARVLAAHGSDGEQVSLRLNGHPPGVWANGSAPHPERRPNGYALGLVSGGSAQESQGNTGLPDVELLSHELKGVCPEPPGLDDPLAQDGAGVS

CCOC(=O)C1=C(C)NC(c2ccccc2)=C(C(=O)OCc2ccccc2)C1C#Cc1ccccc1 (racemic) [MRS-1191, 3-ethyl 5-benzyl-2-methyl-6-phenyl-4-phenylethynyl-1,4-(±)-dihydropyridine-3,5-dicarboxylate]
time of maximum decrease in IOP observed pneumotonometrically (mouse IOP; after the initial application, end of the experiments): 30 min | time to begin lowering mouse IOP significantly, non-invasive (mouse IOP; after topical application): 30 min | displacement of radioligand binding [1]: did not displace radioligand binding | effect of antagonist on adenosine-treated cells (cultured human NPE cells): displayed no exponential shrinkage | response of IOP of A3AR-null mice [2]: unresponsive | Ki (human A1 receptors): 40.1 µM | Ki (human A2A receptors): > 100 µM
